Entries after “also recorded” stand apart in the source; their conditions may differ.
Assays:
[1] = system: HASMCs; type: cell-based, human; conditions: up to 100 nM (200 nM for A4, A7, A9)
[2] = system: HAECs; type: cell-based, human; conditions: up to 50 nM (100 nM for A4, A7, A9)
Description: For cell proliferation assay, HAECs were divided at a concentration of 4000 cells/well in a final volume of 100 μl onto a 96-well plate including a siRNA-transfection reagent mixture. After siRNA-transfected for 24 hours, the cells were serum-starved for 18 hours, and then placed in an EBM-2 basal medium supplemented with VEGF-A165 (25 ng/ml, Cat no. 293-VE, R&D systems) for additional 24 hours. The extent of cell proliferation was measured using a WST-1 cell proliferation assay kit (Roche Diagnostics, USA), and the number of cells was expressed as absorbance at 450 nm, which was averaged from 3 wells after subtracting the turbidity at 600 nm.
The cell migration assay was performed in a 24-well Transwell culture chamber (Costar; 8-μm pore size). The bottom of the filter was coated with gelatin B (1 mg/ml) and air-dried for 1 hour. HAECs (6×10^3) were added to upper chambers including siRNA-transfection complexes. After 24 hours, the siRNA-transfected HAECs were serum-starved overnight. A solution of VEGF-A (25 ng/ml) was prepared in a basal medium including 0.5% bovine serum albumin (BSA), and added to bottom chambers. The upper chamber wells were each filled with a basal medium including 0.5% BSA. The Transwell chamber was incubated for 8 hours under the condition of 37° C./5% carbon dioxide. After the incubation, the non-migrated cells at the top of the filter were removed, and the cells that migrated onto the bottom of filter were fixed and stained with 0.6% hematoxylin and 0.5% eosin. The stained cells were photographed and counted. The number of migrating cells was averaged from 3 wells.

[3] = system: yeast thioredoxin (Trx) / yeast thioredoxin reductase (TR) system; assay: Peroxidase activity assay (hydrogen peroxide reduction), Trx/TR system; type: biochemical
Description: The peroxidase activity assay for the epidithiodioxopiperazine derivatives according to the present invention (hereinafter, referred to as ETP compounds) was performed according to known methods [Korean Patent No. 10-0953326]. A standard peroxidase reaction for spectrophotometric assay was carried out using a 200 μl reaction mixture of 1 mM EDTA-containing 50 mM Hepes-NaOH buffer solution (pH 7.0) including 250 μM NADPH, 3 μM yeast thioredoxin (Trx), 1.5 μM yeast thioredoxin reductase (TR), 25 μM ETP compound and […] of hydrogen peroxide. For the comparison with a glutathione (GSH)-dependent peroxidase reaction, GSH (1 mM) and yeast glutathione reductase (GSH reductase; GR) (1 Unit) were added instead of yeast Trx and TR. Each reaction was initiated by adding hydrogen peroxide, and the NADPH oxidation was monitored for 12 minutes at 30° C. according to absorbance decrease at 340 nm using an Agilent UV8453 spectrophotometer (Hewlett Packard, USA). The initial reaction rate was calculated using the linear portion of the curve and expressed as the amount of NADPH oxidized per minute.
The chemical feature of the epidithiodioxopiperazine compound of the present invention or its derivatives is the intramolecular disulfide bridge present in the epidithiodioxopiperazine ring moiety. Cellular peroxidase reduces hydrogen peroxide utilizing the electrons derived from NADPH via two electron-transfer routes, that is, Trx/TR or GSH/GR, therefore, spectrophotometric assay was performed for the hydrogen peroxide-reducing activity in the presence of each system, and the results are shown in FIGS. 1 to 5.

[4] = system: balloon-injured rat carotid artery; assay: Balloon-injury model of rat carotid artery; type: in vivo; conditions: local administration to the lumen through catheter, 30 minutes; ETP derivatives 200 nM; 10 days recovery
Description: Animal experiments were performed in compliance with the guidelines of Institutional Animal Care and Use Committee (IACUC) of the Ewha Womans University. Balloon injury was created using an infiltrated 2 F Fogarty balloon catheter in the left common carotid artery as follows: after the ten-week-old male Sprague-Dawley rats were anaesthetized by isoflurane gas (N2O:O2/70%:30%) inhalation, the left external carotid artery was exposed, and its branches were electrocoagulated. A catheter was pushed 1 cm in through the transverse arteriotomy of the external carotid artery, and the endothelial denudation was achieved by three passes along the common carotid artery. After the catheter was removed, the punched area was sealed and the clapped common carotid artery was opened for resuming the blood flow. Unless otherwise stated, the rats were recovered in a cage for 10 days, and subjected to histological and immunological analyses.
Rats were anesthetized, and the common carotid artery was excised after transcardiac perfusion-fixation with a heparinized saline solution containing 3.7% formaldehyde. The vessels were paraffin embedded and sectioned using a rotary microtome (Leica RM2255). Two serial tissue sections (4 μm in thickness) were obtained from the middle area of common carotid arteries, and stained with haematoxylin and eosin (HE). The luminal, internal elastic laminal, and external elastic laminal areas were measured using NIH Image v1.62. The intimal and medial areas were determined by subtracting the luminal area from the internal elastic area and subtracting the internal elastic area from the external elastic area. The values from the two serial sections for each rat were averaged for analysis.
For the in vivo injection of siRNA, a siRNA mixture specific to rat PrxII (200 nM) was premixed with a siPORT™ NeoFX™ reagent according to the instructions of the manufacturer (Ambion). Immediately after the balloon injury, the siRNA-injected mixture (200 μL) was injected through a catheter after briefly washed with Opti-MEM. After the incubation for 15 minutes, the blood flow was resumed. A siGLO-Red (Dharmacon), which is fluorescent dye-conjugated control siRNA, was used for optimizing in vivo injection efficiency. Similarly, the ETP compound (200 nM in DMSO) was injected through a catheter and incubated for 30 minutes.
Immunohistochemistry for the overoxidized 2-Cys Prxs was performed on the paraffin sections using an anti-Prx-SO2/3 antibody (1:1000 dilution). Briefly, the sections were de-waxed in xylene and rehydrated in ethanol, and subsequently the antigen retrieval was performed by boiling in a citric buffer solution (pH 6.0). After that, the sections were incubated with a primary antibody for 48 hours at 4° C. After washing three times with a phosphatebuffered saline solution, the sections were incubated with a peroxidase-conjugated secondary antibody and stained with a 3′,3′-diaminobenzidine (DAB) substrate solution. For negative staining, the Prx-502/3 antibody was blocked with the corresponding antigenic peptide (DFTFVC(SO2/3)PTEI). For indirect immunofluorescence staining, the paraffin sections were blocked with 5% normal rabbit serum (Vector Laboratories) in PBST (a PBS solution of 0.3% Triton X-100) for 1 hour at room temperature. The sections were then incubated overnight at 4° C. with the […] against rat smooth muscle α-actin (1:300 dilution) and rat CD31 (PECAM-1, 1:200 dilution). The nuclei were labeled with DAPI. After several PBST washes, the samples were incubated for 2 hours at room temperature with Alexa Fluor 568-conjugated donkey anti-mouse and Alexa Fluor 488-conjugated donkey anti-rabbit IgG antibodies. The fluorescence images were recorded on three random fields per tissue section at a screen magnification of 100× using a LSM 510 Meta confocal microscope equipped with argon and helium-neon lasers.
The paraffin sections were incubated for 10 minutes in PBS containing 0.1% Triton X-100. […]

Compound	proliferation and chemotactic transmigration of HASMCs in response to PDGF, enhanced by PrxII knockdown [1]	VEGF-induced proliferation and chemotactic transmigration of HAECs, impaired by PrxII knockdown [2]	initial reaction rate for hydrogen peroxide reduction compared to the corresponding oxidized type [3]	hydrogen peroxide-reducing (peroxidase) activity in the presence of a Trx/TR system, in words [3]	intimal hyperplasia (ratio of intima versus media, HE staining) [4]
CN1C(=O)C2(C)SSC1C(=O)N2C (centres unmarked) [Compound A3, 1,5,7-trimethyl-2,3-dithia-5,7-diazabicyclo[2.2.2]octane-6,8-dione]	excellent activities	excellent activities			
O=C1NC2SSC1NC2=O [Compound A1, 2,3-dithia-5,7-diazabicyclo[2.2.2]octane-6,8-dione]	excellent activities	excellent activities			
C=CCN1C(=O)C2SSC1C(=O)N2CC=C [Compound A5, 5,7-diallyl-2,3-dithia-5,7-diazabicyclo[2.2.2]octane-6,8-dione]	excellent activities	excellent activities			
COCCCN1C(=O)C2SSC1C(=O)N2CCCOC [Compound A9, 5,7-bis(3-methoxypropyl)-2,3-dithia-5,7-diazabicyclo[2.2.2]octane-6,8-dione]	insignificant activities; also recorded: moderate activities	insignificant activities; also recorded: moderate activities			
C=CCN1C(=O)C(S)N(CC=C)C(=O)C1S (centres unmarked) [Compound A5R, 3,6-dimercapto-1,4-diallylpiperazine-2,5-dione]	no significant changes	no significant changes	higher intial reaction rates		
COc1ccc(CN2C(=O)C3NC(=O)C2SS3)cc1 (centres unmarked) [Compound A6, 5-(4-methoxybenzyl)-2,3-dithia-5,7-diazabicyclo[2.2.2]octane-6,8-dione]	moderate activities	moderate activities			
COc1ccc(CN2C(=O)C3SSC2C(=O)N3Cc2ccc(OC)cc2)cc1 [Compound A4, 5,7-bis(4-methoxybenzyl)-2,3-dithia-5,7-diazabicyclo[2.2.2]octane-6,8-dione]	insignificant activities; also recorded: low activities	insignificant activities; also recorded: low activities			
CCCCN1C(=O)C2SSC1C(=O)N2CCCC [Compound A8, 5,7-dibutyl-2,3-dithia-5,7-diazabicyclo[2.2.2]octane-6,8-dione]	excellent activities	excellent activities			
CN1C(=O)C(S)N(C)C(=O)C1S (centres unmarked) [Compound A2R, 3,6-dimercapto-1,4-dimethylpiperazine-2,5-dione]	no significant changes	no significant changes	higher intial reaction rates		
CN1C(=O)C2SSC1C(=O)N2C [Compound A2, 5,7-dimethyl-2,3-dithia-5,7-diazabicyclo[2.2.2]-octane-6,8-dione]	excellent activities	excellent activities			
CS[C@]1(CO)C(=O)N2[C@H]3C(=CC=C[C@@H]3O)C[C@@]2(SC)C(=O)N1C [bis(methylthio)gliotoxin, Bis(methylthio)gliotoxin]				not observed	did not suppress
O=C1C2SSC(C(=O)N2C(c2ccccc2)c2ccccc2)N1C(c1ccccc1)c1ccccc1 [Compound A7, 5,7-dibenzhydryl-2,3-dithia-5,7-diazabicyclo[2.2.2]octane-6,8-dione]	insignificant activities; also recorded: low activities	insignificant activities; also recorded: low activities			
